From US9624491B2, “Methods and compositions for the detection and treatment of cancer involving miRNAs and miRNA inhibitors and targets” (Memorial Sloan Kettering Cancer Center, priority 2010, dated 2017)

Experiments:
FL5-12 lymphocytes = assay: IL3 depletion competition assay for cytokine-independent survival of FL5-12 lymphocytes; assay type: cell-based, murine
Protocol: An established in vitro assay of hematopoietic transformation (Plas, Talapatra, Edinger, Rathmell, & Thompson, 2001) was used to identify the key oncogenic activities within the 17˜92 cluster and its paralogues. All miRNAs representing families of unique seed sequences, specifically miR-17, miR-18a, miR-19b-1 (miR-19), miR-20a, miR-106a, miR-106b and miR-25 were tested (FIG. 1a). The assay is based on the IL3 dependence of FL5-12 lymphocytes, which undergo apoptosis when removed from IL3. In competition experiments, FL5-12 cells were partially transduced with GFP plus individual miRNAs or empty vector and these mixed populations were monitored by fluorescence-activated cell sorting (FACS) for changes in their relative proportions (FIG. 1b).
(§1) FL5-12 murine lymphocytes, IL3 depletion studies and viral transductions were as described (Mavrakis, et al., 2008) (Plas, Talapatra, Edinger, Rathmell, & Thompson, 2001). Cell cycle and cell death assays based on uptake of DNA staining dye (LDS751) using Cell cycle and Viacount assays from Guava Technologies were performed as reported (Mavrakis, et al., 2008). The retroviral vectors are based on murine stem cell virus (MSCV) and include the miRNA expression vectors encoding miRs 17, 18a, 19b-1 (miR-19), 106a, 106b, 25 (He, et al., 2005), the vectors encoding Notch-ICN (a gift from W. Pear) (Pear, et al., 1996) and Bcl2 (Wendel, et al., 2004), the individual shRNA vectors (FIG. 17) and the library vector (MRP) (FIGS. 18a and b). miRNA inhibitor oligonucleotides (antagomirs) MZIP19a-PA-1, MZIP19b-PA-1, and scrambled control (MZIP000-PA-1) were from System Biosciences.
The primary screen is based on c-MYC-induced apoptosis in MEFs (Evan, et al., 1992). MEFs were transduced with c-MYC and the miRNA library and cultured in puromycin to select for homogeneous c-MYC expression; apoptosis was triggered by diluting serum from 10% to 0.1%. Surviving cells remained adherent and were collected for DNA isolation, PCR amplification of the integrated miRNA library constructs, sub-cloning into pGEM-T vector, bacterial transformation, and sequence identification of ˜100 colonies. A secondary library was constructed by sub-cloning all miRNAs from the primary screen into an MSCV construct. The secondary screen is based on the IL-3 dependence of FL5-12 lymphocytes in vitro (Mavrakis, et al., 2010), (Plas, Talapatra, Edinger, Rathmell, & Thompson, 2001). FL5-12 cells were partially transduced with the pooled, GFP-tagged library and selected by IL-3 depletion. miRNAs were identified as above. Individual miRNAs were subsequently validated in the same FL5-12 assay and in vivo.

FL5-12 cells = assay: Cell cycle and cell death (viability) assays in FL5-12 cells; assay type: cell-based, murine
Protocol: as §1

[1] = system: Pten, Ppp2r5e, Prkaa1 and Bim mRNA; assay: qRT-PCR of miR-19 target genes in FL5-12 cells; assay type: cell-based; conditions: FL5-12 cells and murine T-ALL samples
Excerpt: Total RNA and miRNA-enriched RNA were extracted from cells and tumor samples using Allprep DNA/RNA/Protein Kits (Qiagen) and miRNeasy Mini Kits (Qiagen), respectively. Pathological diagnosis was by expert hematopathologists at Weill Cornell Medical College. cDNA synthesis and qRT-PCR and analysis by the ΔΔ Ct method were as described (Mavrakis, et al., 2008). TaqMan Gene Expression Assays were used for Bcl2L11 (Mm00437796_m1), Dock5 (Mm00555757_m1), FoxO1 (Mm00490672_m1), FoxO3 (Mm01185722_m1), Ppp2r5e (Mm00803759_m1), Prkaa1 (Mm01296695_m1) and Pten (Mm01212532_m1). Mouse GAPD (GAPDH) (4352932) and miR-19b (000396) were from Applied Biosystems. Expression was normalized to RNU6B (001093, Applied Biosystems).

[2] = system: PTEN, BCL2L11, PHF6, IKZF1, NF1, FBXW7; assay: 3′UTR reporter, quantitative PCR and immunoblot assays of tumor suppressor genes in murine leukemias; assay type: cell-based; conditions: murine T-ALLs expressing NOTCH1 and miRNA, mRNA, protein
Protocol: Immunoblots of whole cell lysates were performed as described (Wendel, et al., 2004). Antibodies were against Bim/Bcl2l11 (AAP-330, 1:1000, Assay Designs), Nf1 (sc67, 1:100, Santa Cruz), Cdc4/Fbxw7 (ab7405, 1:500, Abeam), Ikzf1 (sc-13039, 1:500, Santa Cruz), Phf6 (NB100-79861, 1:1000, Novus Biologicals), Pten (9559, 1:1000, Cell Signaling), tubulin (1:5000; Sigma, B-5-1-2) and actin (1:5000; Sigma, AC-15).
Total RNA and miRNA-enriched RNA was extracted using the Allprep DNA/RNA/Protein and miRNeasy Mini kits. Pathological diagnosis was by expert hematopathologists at Weill Cornell Medical Center. cDNA synthesis, PCR and analysis by the ΔΔ Ct method were as described (Mavrakis, et al., 2008) and utilized Taqman Gene Expression Assays: Bcl2l11 (Mm00437796_m1), BCL2L11 (Hs00197982_m1), Pten (Mm01212532_m1), PTEN (Hs02621230_s1), Nf1 (Mm00812430_m1), NF1 (Hs01035104_m1), Ikzf1 (Mm01187878_m1), IKZF1 (Hs00172991_m1), Fbxw7 (Mm00504452_m1), FBXW7 (Hs00217794_m1), Phf6 (Mm00804415_m1), and Mouse GAPD (GAPDH) (4352932, Applied Biosystems). Expression was normalized to RNU6B (001093, Applied Biosystems).
The mouse FBXW7 (bp 2793-4139; acc. no. NM_001177773), human NF1 (bp 10033-10666; acc. no NM_000267), human PHF6 (bp position 3271-4299; acc. no. NM_001015877) and Bim (bp. 3155-4773; acc. no. NM_009754) 3′UTR fragments were generated by PCR and cloned into the psi-CHECK-2 vector (Promega) with the exception of the IKZF1 3′UTR, which was purchased from Genecopoeia (cat no. HmiT000397b, by 2343-4471 of UTR). The assays were performed as described (Xiao, et al., 2008).

miR-19: miRNA of the 17˜92 cluster, UGUGCAAAUCCAUGCAAAACUGA (SEQ ID NO: 2); seed family in Table 3 (expressed or natural sequence; listed as Homo sapiens)
enrichment of miRNA/GFP-expressing FL5-12 cells over parental cells upon IL3 depletion (FL5-12 lymphocytes; competition experiment, FACS): rapidly enriched over parental cells upon IL3 depletion
IL-3 independence of FL5-12 cells (FL5-12 lymphocytes; retest of individual miRNAs from secondary library screen): confer IL-3 independence on FL5-12 cells
Viability (FL5-12 cells; FL5-12 cells withdrawn from IL3 for 48 h): 82%±1.5%
S-phase fraction (FL5-12 cells; synchronized FL5-12 cells 24 h after release): 24.5%±0.5
reductions in the mRNA levels of Pten, Ppp2r5r, Prkaa1 and Bim [1]: up to 2 ×
regulation of tumor suppressor genes [2]: regulates PTEN and BCL2L11 expression
